{"source": "paper PMC3884022", "about": "(Journal of Hematology & Oncology, 2014)", "key": {"[1]": {"experiment": "Docetaxel PK samples (end of infusion), arm 2", "format": "in vivo, human", "conditions": "arm 2, IV docetaxel with MK-2206", "description": "For the Q3W schedule, samples were taken in cycle 1 on days 1 to 3 as per the QOD schedule, then on days 5, 7, 15, and in cycle 2 on day 1. Blood samples were collected predose and just before the end of the infusion for carboplatin, paclitaxel, and docetaxel for archival and possible PK analysis. Another sample was taken 30 minutes into the infusion of paclitaxel. These samples were archived for possible future analysis to investigate if any unexpected toxicities may have been as a result of a PK interaction."}, "[2]": {"conditions": "cited from earlier work"}}, "data": [{"compound": "CC(=O)O[C@@]12CO[C@@H]1C[C@H](O)[C@@]1(C)C(=O)[C@H](O)C3=C(C)[C@@H](OC(=O)[C@H](O)[C@@H](NC(=O)OC(C)(C)C)c4ccccc4)C[C@@](O)([C@@H](OC(=O)c4ccccc4)[C@H]21)C3(C)C", "note": "[docetaxel]", "values": [{"measurement": "mean end-of-infusion concentration", "setting": "[1]", "value": 3.01, "unit": "µg/mL"}, {"measurement": "mean end-of-infusion concentration, range of mean values in the literature", "setting": "[2]", "value": "1.68 to 4.06", "unit": "µg/mL"}]}]}
